Measurements taken from the NIST ThermoML archive (doi:10.1016/j.fluid.2013.08.024).
± gives the expanded uncertainty stated by the source.

What was measured:
[1] = Crystal; DTA
[2] = Molar enthalpy of transition or fusion; conditions: Crystal; DSC

Normal melting temperature [1] [°C]	Molar enthalpy of transition or fusion [2] [kcal/mol]	Structure (SMILES)
0.1 ± 0.7	9.29 ± 0.263	CCCCCCCCCCCC(=O)OCC [ethyl dodecanoate]
25.08 ± 0.7	13.3 ± 0.359	CCCCCCCCCCCCCCCC(=O)OCC [ethyl hexadecanoate]
34.2 ± 0.7	14.3 ± 0.382	CCCCCCCCCCCCCCCCCC(=O)OCC [ethyl octadecanoate]
